Assay results reported in PMC7285913, “In vitro hepatic biotransformation of the algal toxin pectenotoxin-2” (Toxicon: X, 2020).

Tests used:
[1] = ref Alexander et al., 2009, cited from earlier work; for provisional toxicity equivalent factor (TEF): EFSA
[2] = In vitro hepatocyte assay under kinetic conditions (PTX-2 disappearance); type: in vitro ADME, Wistar rats; settings: male, Wistar, primary rat hepatocytes in suspension, pH 7.4, primary rat hepatocytes, read-out: t½,assay (converted)
Experimental: (§1) Isolated rat liver cells were prepared by a two-step collagenase ex vivo perfusion from male Wistar rats, weighing 250–300 g and kept under routine laboratory conditions with free access to standard laboratory pelleted feed and water ([Seglen, 1976]). The hepatocytes were separated by gradient centrifugation ([Fæste and Moldes-Anaya, 2016]), suspended in PBS, and stored for up to 1 h on ice before use ([Sidelmann et al., 1996], [Gebhardt et al., 2003]). Cell viability was determined microscopically (Leica DMIL microscope; Leica Microsystems GmBH, Wetzlar, Germany), using Trypan blue staining and a Neubauer-counting chamber. About 2.5 × 10^8 living cells per liver were obtained on average, and only preparations with viabilities >92% were used in the metabolism experiments.
(§2) The hepatocyte suspension was diluted with KRB–HEPES buffer pH 7.4 (Krebs-Ringer buffer containing 145 mM NaCl, 5.4 mM KCl, 0.8 mM MgSO4, 0.33 mM Na2HPO4, 0.34 mM KH2PO4, 2 mM CaCl2, and 20 mM HEPES) to a final assay concentration of 2.5 × 10^6 cells/mL. The incubations were performed in capped round-bottom glass tubes in a total assay volume of 5 mL. After pre-incubation for 5 min at 37 °C in a shaking water bath, 5–25 μL of a PTX-2 stock solution containing 1 mg/mL PTX-2 in MeOH were added, resulting in initial concentrations of 1–5 μg/mL PTX-2 in the assay. Aliquots (300 μL) were taken after 0, 2.5, 5, 7.5, 10, 15, 30, and 60 min of incubation and directly transferred into 300 μL ice-cold acetonitrile (ACN) in Eppendorf tubes. Two control samples were included in the experiments, a blank matrix control and a PTX-2 stability control. After centrifuging all samples at 16,000 g for 1 min (5415D centrifuge; Eppendorf AG, Hamburg, Germany), the supernatants were transferred to HPLC vials for analysis by liquid chromatography mass spectrometry (LC-MS) to determine the half-life of PTX-2 in rat hepatocytes.
(§3) LC-MS analyses of centrifuged aliquots from the kinetic assays were performed under reversed phase conditions using a Symmetry C18 column (5 μm, 3.9 × 150 mm) (Waters, Milford, MA, USA) and a binary LC pump (Finnigan Mod. 250) coupled to an Autosampler Plus (Thermo Electron Corporation, San Jose, CA, USA). 5–20 μL samples were injected and eluted using a linear gradient starting with ACN/water (40:60, v/v, both containing 0.1% formic acid and 2 mM ammonium formate) and rising to 100% ACN in 20 min. Isocratic elution with 100% ACN was maintained for 5 min before the eluent was returned to the starting conditions. The flow rate was set to 1 mL/min.

primary rat hepatocytes [3] = assay: as above; type: in vitro ADME, Wistar rats
Experimental: as §1, §2, §3

primary rat hepatocytes [4] = assay: Calculation of the hepatic clearance and maximum bioavailability of PTX-2 in rats from hepatocyte half-life; type: in vitro ADME; settings: for CLb: predicted in vivo hepatic blood clearance in rat, well-stirred model, fub = 1; for CLint: scaled from rat hepatocyte assay
Experimental: The in vitro assay clearance (CLassay) of PTX-2 was calculated from the hepatocyte incubations run with first order kinetics (CLassay = Vassay × ln2/t1/2 [Lh^−1]) using the assay volume (Vassay) and the disappearance half-life (t1/2) of the parent compound as determined from the slope of the linear regression from a semi-logarithmic concentration vs. time plot ([Obach, 1999]). […] The in vivo hepatic blood clearance (CLb) was calculated from CLint by applying the non-restricted well-stirred model (CLb = CLint x Q/(CLint + Q) [L (h x kg)^−1]) ([Houston, 1994]), considering the hepatic blood flow in rat (Q ~ 4.2 L (h x kg)^−1) ([Lin and Lu, 1998]). Potential binding to blood components in vivo was not considered in this study and thus the fraction unbound in blood (fub) set to 1. The maximum bioavailability (Fmax) of PTX-2 in rats was estimated (Fmax = Fa x (1 – (CLb/Q) under the assumption of complete absorption from the gastrointestinal tract (Fa = 1) ([De Buck et al., 2007]) and negligible non-hepatic elimination. Fmax was ranked according to the criteria for low (0–10%), moderate (10–30%) and high bioavailability (up to 100%) ([Obach, 1996]).

mice [5] = settings: intestinal toxicity in mice; ref Alexander et al., 2009; cited from earlier work
mice [6] = settings: single oral doses of 0.3, 1 and 5 mg/kg bw, preliminary data, ref Burgess and Shaw, 2001, Alexander et al., 2009; cited from earlier work
mice [7] = settings: mouse, ref Suzuki et al., 2006, cited from earlier work
mussels = settings: in mussels, in contrast to PTX-2; ref MacKenzie et al., 2005; cited from earlier work

In the case of CC1=C\[C@H](C)C[C@@]2(C)CC[C@@H](O2)[C@@]23CC[C@@](CO)(C[C@@H](O2)[C@H]2O[C@](C)(CC2=O)[C@@H](O)[C@@H]2CC[C@@]4(CCC[C@H](O4)[C@@H](C)C(=O)O[C@@H]4C[C@@H]([C@@]5(O)OCC[C@@H](C)[C@H]5O)O[C@@H]4\C=C\1)O2)O3 [PTX-1, reference compound], the “provisional toxicity equivalent factor (TEF)” value [1] is given as 1.

For CC(/C=C/[C@H]1O[C@H]([C@@]2(O)OCC[C@@H](C)[C@H]2O)C[C@H]1O)=C\[C@H](C)C[C@@]1(C)CC[C@H]([C@@]23CC[C@@](C)(C[C@H]([C@H]4O[C@@](C)([C@@H](O)[C@@H]5CCC6(CCC[C@@H]([C@@H](C)C(=O)O)O6)O5)CC4=O)O2)O3)O1 (stereo partly drawn) [PTX-2 seco acid (SA), pectenotoxin-2 seco acid], the “relative toxicity” value ([1]; compared with PTXs given TEF of 1) is listed as “much less toxic”.

CC1=CC(C)CC2(C)CCC(O2)C23CCC(C)(CC(O2)C2OC(C)(CC2=O)C(O)C2CCC4(CCCC(O4)C(C)C(=O)OC4CC(C5(O)OCCC(C)C5O)OC4C=C1)O2)O3 (stereo not drawn) [PTX-2, pectenotoxin-2] showed a half-life at 1.4 μg/mL ([2]; PTX-2 1.4 μg/mL) of 11.4 min, a half-life at 2.6 μg/mL ([2]; PTX-2 2.6 μg/mL) of 9.6 min and a half-life at 4.8 μg/mL ([2]; PTX-2 4.8 μg/mL) of 12 min. The PTX-2 remaining unchanged (primary rat hepatocytes [3]; after 30 min of incubation, all concentrations, rat hepatocytes) was 17–20%, the “metabolism in freshly isolated rat hepatocytes” value (primary rat hepatocytes [3]; freshly isolated rat hepatocytes) was “rapidly metabolized” and the CLb (primary rat hepatocytes [4]; PTX-2 1.4 μg/mL) was 47.3 mL/min/kg. For the same molecule, the CLint (primary rat hepatocytes [4]; PTX-2 1.4 μg/mL) was 146 mL/min/kg, the CLb (primary rat hepatocytes [4]; PTX-2 2.6 μg/mL) was 50 mL/min/kg and the CLint (primary rat hepatocytes [4]; PTX-2 2.6 μg/mL) was 174 mL/min/kg. For the same molecule, the CLb (primary rat hepatocytes [4]; PTX-2 4.8 μg/mL) was 47 mL/min/kg, the CLint (primary rat hepatocytes [4]; PTX-2 4.8 μg/mL) was 143 mL/min/kg and the “compound predicted to remain unmetabolized after the first pass through the liver” value (primary rat hepatocytes [4]; after oral uptake, rat) was “up to 32%”. For the same molecule, the “predicted hepatic blood clearance (rank)” value (primary rat hepatocytes [4]; rat, negligible protein binding and unrestricted absorption assumed) was “moderate”, the “lowest-observed-adverse-effect-level (LOAEL)” value (mice [5]) was 250 μg/kg bw and the “provisional toxicity equivalent factor (TEF)” value [1] was 1. The “acute reference dose (ARfD)” value ([1]; established by EFSA) was 0.8 μg PTX-2 equivalents/kg body weight (bw), the metabolic elimination (mice [6]) was “considerable metabolic elimination” and the “uptake from the gastrointestinal tract” value (mice [6]) was “low uptake from the gastrointestinal tract”.

For CC1=C\[C@H](C)C[C@@]2(C)CC[C@@H](O2)[C@@]23CC[C@@](C=O)(C[C@@H](O2)[C@H]2O[C@](C)(CC2=O)[C@@H](O)[C@@H]2CC[C@@]4(CCC[C@H](O4)[C@@H](C)C(=O)O[C@@H]4C[C@@H]([C@@]5(O)OCC[C@@H](C)[C@H]5O)O[C@@H]4\C=C\1)O2)O3 [PTX-3], the “provisional toxicity equivalent factor (TEF)” value [1] is given as 1.

In the case of CC1=C\[C@H](C)C[C@@]2(C)CC[C@@H](O2)[C@@]23CC[C@@](CO)(C[C@@H](O2)[C@H]2O[C@](C)(CC2=O)[C@@H](O)[C@@H]2CC[C@]4(CCC[C@H](O4)[C@@H](C)C(=O)O[C@@H]4C[C@@H]([C@@]5(O)OCC[C@@H](C)[C@H]5O)O[C@@H]4\C=C\1)O2)O3 [PTX-4], the “provisional toxicity equivalent factor (TEF)” value [1] is given as 1.

For CC1=C\[C@H](C)C[C@@]2(C)CC[C@@H](O2)[C@@]23CC[C@@](C(=O)O)(C[C@@H](O2)[C@H]2O[C@](C)(CC2=O)[C@@H](O)[C@@H]2CC[C@@]4(CCC[C@H](O4)[C@@H](C)C(=O)O[C@@H]4C[C@@H]([C@@]5(O)OCC[C@@H](C)[C@H]5O)O[C@@H]4\C=C\1)O2)O3 [PTX-6], the “provisional toxicity equivalent factor (TEF)” value [1] is given as 1.

For CC1=C\[C@H](C)C[C@@]2(C)CC[C@@H](O2)[C@@]23CC[C@@](C)(C[C@@H](O2)[C@H]2O[C@](C)(CC2=O)[C@@H](O)[C@@H]2CC[C@@]4(CCC[C@H](O4)[C@@H](C)C(=O)O[C@@H]4[C@H](O)[C@@H]([C@@]5(O)OCC[C@@H](C)[C@H]5O)O[C@@H]4\C=C\1)O2)O3 [PTX-11, 34 S-hydroxypectenotoxin-2], the “provisional toxicity equivalent factor (TEF)” value [1] is listed as 1, the “effects after oral application” value (mice [7]; as much as 5 mg/kg bw p. o.) is listed as “no effects were detected” and the LD50 (mice [7]; i. p.) is listed as 0.24 mg/kg bw. The “resistance to enzymatic hydrolysis” value (mussels) was “relatively resistant to enzymatic hydrolysis”.
